Source: patent US20250188044A1 (HARBIN MEDISAN PHARMACEUTICAL CO., LTD., priority 2021, published 2025)
Where two headings read alike, the source gives them in different places.

Assays:
HepG2 cells = assay: Lipid metabolism-associated gene expression of HepG2 cells (qPCR); type: cell-based, human; conditions: 8 nM, nM, and 200 nM, 12 h, vs. blank control (FIGS. 1 and 2)
Method: HepG2 cells (human hepatoma cells) were cultured in a 6-well cell culture plate and subjected to adherent culture overnight. […] The old medium was discarded and replaced with drug-containing medium of different concentrations (complete medium without the compound for the blank control group). After dosing, the cells were incubated for 12 h. The medium was discarded and total RNA was extracted by the phenol-chloroform method. After reverse transcription, the real-time quantitative fluorescent PCR experiment (RNA extraction, reverse transcription, quantitative PCR reagents were all purchased from Nanjing Vazyme Biotech Co., Ltd.) was performed using ACTB as an internal reference, and the expression of PDK4, ACADVL, and CPT1A, which are important genes in oxidative metabolism of lipids, was detected according to the steps in the product instructions (the primer sequences are shown in Table 7). […] Some other compounds of the present invention also have similar activity.

PPARδ = target: T1, PPARδ (Homo sapiens, UniProt Q03181); assay: Gal4-PPARδ(LBD) reporter gene agonistic activity assay in Cos-7 cells; type: cell-based; conditions: for agonistic activity for PPARδ (EC50 level, in words): Cos-7 reporter assay
T1 construct: expressed in transfected cells; host or cells: Cos-7
T1 sequence (Q03181 139-441 limits assumed): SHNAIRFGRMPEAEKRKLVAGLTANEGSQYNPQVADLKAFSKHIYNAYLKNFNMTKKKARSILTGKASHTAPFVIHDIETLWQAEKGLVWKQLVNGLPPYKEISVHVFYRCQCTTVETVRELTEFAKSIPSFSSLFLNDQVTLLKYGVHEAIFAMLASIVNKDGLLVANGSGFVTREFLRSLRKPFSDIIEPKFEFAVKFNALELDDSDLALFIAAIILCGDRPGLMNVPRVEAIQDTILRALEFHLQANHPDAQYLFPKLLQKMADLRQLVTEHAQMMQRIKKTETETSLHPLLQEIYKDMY
Method: (§1) Cos-7 cells (African green monkey kidney fibroblasts, commonly used tool cells) were cultured in a 10 cm cell culture dish in a DMEM complete medium containing 10% fetal bovine serum. When the cells grew to a density of about 70%, the medium was replaced with a fresh medium for later transfection. […] The plasmid working solution was then added to the cell culture dish for cell transfection. […] Test compounds were prepared into appropriate test concentrations with a complete medium and then added to the 96-well plate. […] 10 μL of lysate was pipetted into a white opaque 384-well plate, and then 10 μL of reporter gene assay buffer (purchased from Shanghai Beyotime Biological Tech. Co., Ltd.) was added. The bioluminescence was detected by using a multimode microplate reader, and the corresponding half maximal effective concentration (EC50) value was calculated according to the detection value.

PPARα = target: T2, PPARα (Homo sapiens, UniProt Q07869); assay: Gal4-PPARα(LBD) reporter gene agonistic activity assay in Cos-7 cells; type: cell-based; conditions: for EC50: Cos-7 cells, Gal4-PPARα(LBD) reporter, 16 h, 100% = GW7647 10 nM; for agonistic activity for PPARα (EC50 level, in words): Cos-7 reporter assay
T2 construct: hPPARα (279aa-580aa); expressed in transfected cells; host or cells: Cos-7
T2 sequence (Q07869 167-468 limits assumed): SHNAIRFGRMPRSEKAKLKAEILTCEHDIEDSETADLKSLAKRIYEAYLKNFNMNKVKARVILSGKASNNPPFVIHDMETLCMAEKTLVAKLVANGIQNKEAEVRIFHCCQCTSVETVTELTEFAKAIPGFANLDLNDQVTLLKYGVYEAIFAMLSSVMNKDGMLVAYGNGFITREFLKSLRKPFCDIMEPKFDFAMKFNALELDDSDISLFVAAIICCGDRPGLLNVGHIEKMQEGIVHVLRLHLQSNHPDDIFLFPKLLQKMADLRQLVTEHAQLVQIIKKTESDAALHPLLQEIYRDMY
Method: as §1

[1] = Metabolic stability in human liver microsomes; type: in vitro ADME; conditions: for half-life: human liver microsomes 0.75 mg/mL, NADPH, 0-60 min
Method: A 500 μM solution of the compound in acetonitrile was prepared and diluted to obtain a 1.5 μM drug working solution with a 0.1 M potassium phosphate solution. The drug working solution was co-incubated with a human liver microsome working solution at a final concentration of 0.75 mg/mL and an NADPH solution (final concentration: 550 μM), and the incubation was terminated by adding an acetonitrile solution at 0 min, 15 min, 30 min, 45 min, and 60 min. The residual amount of the compound that remained in the system at each time point was detected by using LC/MS. The absolute value k of the slope was determined by plotting the natural logarithm of the percentage of the residual amount of the compound with the time, and the calculation was performed according to the formula: T1/2 (half-life)=ln2/k=0.693/k.

THP1 cells = assay: LPS-induced inflammation-associated gene expression of THP1 cells (qPCR); type: cell-based, human; conditions: THP1 monocyte-derived macrophages, 8, 40, and 200 nM, 6 h, qPCR (FIG. 3)
Method: THP1 cells (human monocytes) were cultured in a 6-well cell culture plate in a medium containing 100 ng/mL phorbol ester (purchased from MCE) and stimulated for differentiation for 48 h.
The medium was replaced with a fresh complete medium for the blank control group, the medium was replaced with a complete medium containing […] LPS for the LPS group, and the medium was replaced with 8, 40, and 200 nM drug-containing media prepared with a complete medium containing […] LPS for the administration group. After 6 h of treatment, the medium was discarded. Quantitative PCR was performed according to the procedures in Example 207 to detect the expression of IL6 and IL12B, which are inflammatory factors playing an important role in inflammatory response (the primer sequences are shown in Table 8). […] Some other compounds of the present invention also have similar anti-inflammatory activity.

[2] = Pharmacokinetic evaluation in mice; type: in vivo, C57BL/6J mice; conditions: for AUC(0-inf): read-out: Area under the curve AUC(0-∞); for half-life: read-out: Half-life T1/2 (converted); for Cmax: read-out: Peak concentration Cmax; for Tmax: read-out: Time-to-peak Tmax
Source text: Animals: 6 male C57BL/6J mice, SPF grade, sourced from the animal repository of Shanghai Medicilon research institution.
Grouping: Mice were divided into 2 groups of 3 mice each, one group was an oral administration group and the other group was an intravenous injection administration group. The dose in the oral administration group was 10 mpk, and the dose in the intravenous injection group was 2 mpk.
Experimental method: After the intravenous injection administration group was subjected to administration by injection via the tail vein, approximately 0.03 mL of blood was collected via the orbit at 0.083 h, 0.25 h, 0.5 h, 1 h, 2 h, 4 h, 8 h, and 24 h, and an ethylenediaminetetraacetic acid dipotassium salt was quickly added for anticoagulation and the blood was placed on ice after the blood collection. The mice in the oral administration group were fasted for 12 h before administration and fed 4 h after administration; after oral administration, approximately 0.03 mL of blood was collected via the orbit at 0.25 h, 0.5 h, 1 h, 2 h, 4 h, 6 h, 8 h, and 24 h, and an ethylenediaminetetraacetic acid dipotassium salt was quickly added for anticoagulation and the blood was placed on ice after the blood collection. All samples were centrifuged at 18,000 g for 7 min in a low-temperature centrifuge, and plasma was isolated. The content of the compound in the plasma was determined by LC-MS/MS-18, and relevant pharmacokinetic parameters were calculated from the plasma concentration data at different time points.

[3] = Pharmacokinetic evaluation in rats; type: in vivo, SD rats
Method: Animals: 6 male SD rats, SPF grade, sourced from the animal repository of Shanghai Medicilon research institution.
The dose in the oral administration group was 10 mpk, and the dose in the intravenous injection group was 2 mpk.
All samples were centrifuged at 18,000 g for 7 min in a low-temperature centrifuge, and plasma was isolated. The content of the compound in the plasma was determined by LC-MS/MS-18, and relevant pharmacokinetic parameters were calculated from the plasma concentration data at different time points.

[4] = male, C57BL/6J, mouse, plasma, 2 mg/kg, intravenous injection, 2 mpk
[5] = male, C57BL/6J, mouse, plasma, 10 mg/kg, oral administration, 10 mpk

Q: Which “expression of PDK4, ACADVL, and CPT1A” value (HepG2 cells) does the source give for `Cc1cc(Cn2ncn(-c3ccc(C(F)(F)F)cc3)c2=O)cc(C)c1OC(C)(C)C(=O)O` [Compound 57, 2-(2,6-Dimethyl-4-((5-oxo-4-(4-(trifluoromethyl)phenyl)-4,5-dihydro-1H-1,2,4-triazol-1-yl)methyl)phenoxy)-2-methylpropionic acid] here?
A: improve the expression of PDK4, ACADVL, and CPT1A in a dose-dependent manner with significance

Q: And the EC50 (PPARδ)?
A: 2 nM

Q: What about the “agonistic activity for PPARδ (EC50 level, in words)” value (PPARδ) of the same compound?
A: at nanomolar levels

Q: What about the EC50 (PPARα) of the same compound?
A: 26 nM

Q: And the “agonistic activity for PPARα (EC50 level, in words)” value (PPARα)?
A: at nanomolar levels

Q: What about the “metabolic stability in human liver microsomes (in words)” value ([1]; human liver microsomes) of the same compound?
A: very good metabolic stability in human liver microsomes

Q: What about the half-life [1] of the same compound?
A: > 2 h

Q: And the “LPS-induced expression of IL6 and IL12B” value (THP1 cells)?
A: resist LPS-induced up-regulation of IL6 and IL12B of macrophages

Q: And the “pharmacokinetic properties (in words)” value [2]?
A: good pharmacokinetic properties

Q: And the AUC(0-inf) [2, 4]?
A: 4360 ± 522 ng·h/mL

Q: And the half-life [2, 4]?
A: 9.53 ± 3.29 h

Q: What about the Cmax [2, 4] of the same compound?
A: 7240 ± 269 ng/mL

Q: What about the Tmax [2, 4] of the same compound?
A: 0.08 h

Q: And the AUC(0-inf) [2, 5]?
A: 18600 ± 2760 ng·h/mL

Q: And the bioavailability ([2]; male, C57BL/6J, mouse, plasma, 10 mg/kg, oral administration, 10 mpk, read-out: Bioavailability F)?
A: 87.3%

Q: And the half-life [2, 5]?
A: 7.41 ± 2.05 h

Q: What about the Cmax [2, 5] of the same compound?
A: 14000 ± 2050 ng/mL

Q: What about the Tmax [2, 5] of the same compound?
A: 0.25 h

Q: Which results are given for `Cc1cc(Cn2ncn(-c3ccc(OC(F)(F)F)cc3)c2=O)cc(C(F)(F)F)c1OC(C)(C)C(=O)O` [Compound 163, 2-Methyl-2-(2-methyl-4-((5-oxo-4-(4-(trifluoromethoxy)phenyl)-4,5-dihydro-1H-1,2,4-triazol-1-yl)methyl)-6-(trifluoromethyl)phenoxy)propionic acid]?
A: EC50 (PPARδ): 6 nM; agonistic activity for PPARδ (EC50 level, in words) (PPARδ): at nanomolar levels; EC50 (PPARα): 35 nM; agonistic activity for PPARα (EC50 level, in words) (PPARα): at nanomolar levels; half-life [1]: > 2 h; pharmacokinetic properties (in words) [3]: relatively good pharmacokinetic properties; Area under the curve AUC(0-∞) ([3]; intravenous injection, 2 mpk): 15851.97 ± 3557.93 ng·h/mL; Half-life T1/2 ([3]; intravenous injection, 2 mpk): 12.71 ± 8.67 h; Peak concentration Cmax ([3]; intravenous injection, 2 mpk): 10864.30 ± 719.85 ng/mL; Time-to-peak Tmax ([3]; intravenous injection, 2 mpk): 0.08 ± 0.00 h; Area under the curve AUC(0-∞) ([3]; oral administration, 10 mpk): 39483.83 ± 5363.60 ng·h/mL; Bioavailability F ([3]; oral administration, 10 mpk): 53.24%; Half-life T1/2 ([3]; oral administration, 10 mpk): 6.86 ± 0.34 h; Peak concentration Cmax ([3]; oral administration, 10 mpk): 5474.28 ± 1232.94 ng/mL; Time-to-peak Tmax ([3]; oral administration, 10 mpk): 0.25 ± 0.00 h
